Source: patent publication US10770169B2, “Method of providing a treatment to a subject based on a dynamic pathway map” (THE REGENTS OF THE UNIVERSITY OF CALIFORNIA, priority 2010, dated 2020)

Tested on: panel of 55 breast cancer cell lines
Assay: Cell growth inhibition assay (Cell Titer Glo, 72 h, 9 doses; GI50, TGI, LC50)
Assay type: cell-based, human
[1] = cell line AU565, value is the negative log10 of mol/L
[2] = cell line BT20, value is the negative log10 of mol/L
[3] = cell line BT474, value is the negative log10 of mol/L
[4] = cell line BT483, value is the negative log10 of mol/L
[5] = cell line CAMA1, value is the negative log10 of mol/L
[6] = cell line HCC38, value is the negative log10 of mol/L
[7] = cell line HCC70, value is the negative log10 of mol/L
[8] = cell line HCC1143, value is the negative log10 of mol/L
[9] = cell line HCC1187, value is the negative log10 of mol/L
[10] = cell line HCC1419, value is the negative log10 of mol/L
[11] = cell line HCC1428, value is the negative log10 of mol/L
[12] = cell line HCC1500, value is the negative log10 of mol/L
[13] = cell line HCC1937, value is the negative log10 of mol/L
[14] = cell line HCC1954, value is the negative log10 of mol/L
[15] = cell line HCC2185, value is the negative log10 of mol/L
[16] = cell line HCC3153, value is the negative log10 of mol/L
[17] = cell line MDAMB134V, value is the negative log10 of mol/L
[18] = cell line MDAMB175V, value is the negative log10 of mol/L
[19] = cell line MDAMB361, value is the negative log10 of mol/L
[20] = cell line MDAMB415, value is the negative log10 of mol/L
[21] = cell line MDAMB436, value is the negative log10 of mol/L
[22] = cell line MDAMB453, value is the negative log10 of mol/L
[23] = cell line MDAMB468, value is the negative log10 of mol/L
[24] = cell line SKBR3, value is the negative log10 of mol/L
[25] = cell line SUM52PE, value is the negative log10 of mol/L
[26] = cell line SUM149PT, value is the negative log10 of mol/L
[27] = cell line SUM185PE, value is the negative log10 of mol/L
[28] = cell line SUM1315MO, value is the negative log10 of mol/L
[29] = cell line T47D, value is the negative log10 of mol/L
[30] = cell line UACC812, value is the negative log10 of mol/L
[31] = cell line ZR75B, value is the negative log10 of mol/L
[32] = cell line ZR751, value is the negative log10 of mol/L
[33] = HCC70 cell line, censored GI50 values, value is the negative log10 of mol/L
[34] = HCC1428 cell line, censored GI50 values, value is the negative log10 of mol/L
[35] = HCC2185 cell line, censored GI50 values, value is the negative log10 of mol/L
[36] = HCC3153 cell line, censored GI50 values, value is the negative log10 of mol/L
[37] = MDAMB134VI cell line, censored GI50 values, value is the negative log10 of mol/L
[38] = MDAMB175VII cell line, censored GI50 values, value is the negative log10 of mol/L
[39] = SUM52PE cell line, censored GI50 values, value is the negative log10 of mol/L
[40] = SUM225CWN cell line, censored GI50 values, value is the negative log10 of mol/L
[41] = SUM1315MO2 cell line, censored GI50 values, value is the negative log10 of mol/L
[42] = T47D cell line, censored GI50 values, value is the negative log10 of mol/L
[43] = cell line BT549, value is the negative log10 of mol/L
[44] = cell line HCC202, value is the negative log10 of mol/L
[45] = cell line HCC1395, value is the negative log10 of mol/L
[46] = cell line HCC1806, value is the negative log10 of mol/L
[47] = cell line LY2, value is the negative log10 of mol/L
[48] = cell line MCF7, value is the negative log10 of mol/L
[49] = cell line MDAMB157, value is the negative log10 of mol/L
[50] = cell line UACC893, value is the negative log10 of mol/L

Compound `COc1cc2c(Nc3ccc(NC(=O)c4ccccc4)cc3)ncnc2cc1OCCCN1CCOCC1` [ZM 447439] has a GI50 [1] of 5.82, a GI50 [2] of 5.29 and a GI50 [3] of 4.20. It also gave a GI50 [4] of 4.57, a GI50 [5] of 5.40 and a GI50 [6] of 6.24. The GI50 [7] was 6.01, the GI50 [8] was 4.98 and the GI50 [9] was 6.19. The GI50 [10] was 5.32, the GI50 [11] was 5.13 and the GI50 [12] was 5.28. The GI50 [13] was 5.23, the GI50 [14] was 4.48 and the GI50 [15] was 5.92. For the same compound, the GI50 [16] was 4.48, the GI50 [17] was 4.66 and the GI50 [18] was 4.28. The GI50 [19] was 5.53, the GI50 [20] was 4.48 and the GI50 [21] was 5.33. It also gave a GI50 [22] of 4.45, a GI50 [23] of 6.18 and a GI50 [24] of 4.77. For the same compound, the GI50 [25] was 5.40, the GI50 [26] was 4.18 and the GI50 [27] was 4.50. The GI50 [28] was 4.48, the GI50 [29] was 4.94 and the GI50 [30] was 4.88. For the same compound, the GI50 [31] was 5.00 and the GI50 [32] was 5.46.

With `CC(C)(C)c1cc(C=C(C#N)C#N)cc(Br)c1O` [AG1024] the GI50 [33] was 5.21, the GI50 (HCC202 cell line, censored GI50 values, value is the negative log10 of mol/L) was 4.92 and the GI50 (HCC1419 cell line, censored GI50 values, value is the negative log10 of mol/L) was 4.70. For the same compound, the GI50 [34] was 5.05, the GI50 [35] was 5.11 and the GI50 [36] was 5.11. For the same compound, the GI50 [37] was 4.69, the GI50 [38] was 4.82 and the GI50 (MDAMB361 cell line, censored GI50 values, value is the negative log10 of mol/L) was 4.69. For the same compound, the GI50 [39] was 5.45, the GI50 (SUM185PE cell line, censored GI50 values, value is the negative log10 of mol/L) was 5.57 and the GI50 [40] was 5.03. For the same compound, the GI50 [41] was 5.17, the GI50 [42] was 4.68 and the GI50 (UACC893 cell line, censored GI50 values, value is the negative log10 of mol/L) was 4.75. The GI50 [1] was 4.48, the GI50 [2] was 4.48 and the GI50 [3] was 4.48. For the same compound, the GI50 [4] was 4.48, the GI50 [43] was 4.48 and the GI50 [5] was 4.48. The GI50 [6] was 4.48, the GI50 [7] was 5.21 and the GI50 [44] was 4.92. It also gave a GI50 [8] of 4.58, a GI50 [9] of 4.48 and a GI50 [45] of 4.48. The GI50 [10] was 4.70, the GI50 [11] was 5.05 and the GI50 [12] was 4.58. It also gave a GI50 [46] of 4.48, a GI50 [13] of 4.48 and a GI50 [14] of 4.50. It also gave a GI50 [15] of 5.11, a GI50 [16] of 5.11 and a GI50 [47] of 4.48. For the same compound, the GI50 [48] was 4.48, the GI50 [17] was 4.69 and the GI50 [49] was 4.48. For the same compound, the GI50 [18] was 4.82, the GI50 [19] was 4.69 and the GI50 [20] was 4.48. For the same compound, the GI50 [21] was 4.48, the GI50 [22] was 4.51 and the GI50 [23] was 4.48. It also gave a GI50 [24] of 4.48, a GI50 [25] of 5.45 and a GI50 [26] of 4.48. The GI50 [27] was 5.57, the GI50 (cell line SUM225CWN, value is the negative log10 of mol/L) was 5.03 and the GI50 [28] was 5.17. For the same compound, the GI50 [29] was 4.68, the GI50 [30] was 4.48 and the GI50 [50] was 4.75. It also gave a GI50 [31] of 4.48 and a GI50 [32] of 4.52.

`O=c1[nH]c(=O)n([C@H]2C[C@H](O)[C@@H](CO)O2)cc1F` [5-FdUR] showed a GI50 (AU565 cell line, censored GI50 values, value is the negative log10 of mol/L) of 4.97, a GI50 (BT20 cell line, censored GI50 values, value is the negative log10 of mol/L) of 3.49 and a GI50 (BT474 cell line, censored GI50 values, value is the negative log10 of mol/L) of 3.29. For the same compound, the GI50 (BT483 cell line, censored GI50 values, value is the negative log10 of mol/L) was 4.13, the GI50 (CAMA1 cell line, censored GI50 values, value is the negative log10 of mol/L) was 3.92 and the GI50 (HCC38 cell line, censored GI50 values, value is the negative log10 of mol/L) was 4.00. It also gave a GI50 [33] of 3.67, a GI50 (HCC1143 cell line, censored GI50 values, value is the negative log10 of mol/L) of 4.02 and a GI50 (HCC1187 cell line, censored GI50 values, value is the negative log10 of mol/L) of 3.81. The GI50 (HCC1395 cell line, censored GI50 values, value is the negative log10 of mol/L) was 3.60, the GI50 (HCC1419 cell line, censored GI50 values) was 2.73 and the GI50 [34] was 3.91. For the same compound, the GI50 (HCC1500 cell line, censored GI50 values, value is the negative log10 of mol/L) was 4.21, the GI50 (HCC1806 cell line, censored GI50 values, value is the negative log10 of mol/L) was 4.02 and the GI50 (HCC1937 cell line, censored GI50 values, value is the negative log10 of mol/L) was 3.37. The GI50 (HCC1954 cell line, censored GI50 values, value is the negative log10 of mol/L) was 3.99, the GI50 [35] was 3.12 and the GI50 [36] was 3.24. For the same compound, the GI50 (LY2 cell line, censored GI50 values, value is the negative log10 of mol/L) was 5.01, the GI50 [37] was 3.15 and the GI50 [38] was 4.69. The GI50 (MDAMB231 cell line, censored GI50 values, value is the negative log10 of mol/L) was 3.10, the GI50 (MDAMB468 cell line, censored GI50 values, value is the negative log10 of mol/L) was 3.22 and the GI50 (SKBR3 cell line, censored GI50 values, value is the negative log10 of mol/L) was 3.66. For the same compound, the GI50 [39] was 3.49, the GI50 (SUM149PT cell line, censored GI50 values, value is the negative log10 of mol/L) was 4.11 and the GI50 (SUM159PT cell line, censored GI50 values, value is the negative log10 of mol/L) was 4.49. It also gave a GI50 [40] of 3.71, a GI50 [41] of 3.13 and a GI50 [42] of 3.48. For the same compound, the GI50 (UACC812 cell line, censored GI50 values, value is the negative log10 of mol/L) was 4.34, the GI50 (ZR75B cell line, censored GI50 values, value is the negative log10 of mol/L) was 5.16 and the GI50 (ZR751 cell line, censored GI50 values, value is the negative log10 of mol/L) was 5.27. The GI50 (cell line 600MPE, value is the negative log10 of mol/L) was 4.11, the GI50 [1] was 5.18 and the GI50 [3] was 3.17. The GI50 [4] was 4.48, the GI50 [43] was 3.74 and the GI50 [5] was 3.51. For the same compound, the GI50 [6] was 3.72, the GI50 [7] was 4.05 and the GI50 [44] was 4.41. The GI50 [8] was 3.69, the GI50 [9] was 3.18 and the GI50 [45] was 3.13. The GI50 [10] was 3.77, the GI50 [11] was 4.99 and the GI50 [12] was 4.23. The GI50 [46] was 4.59, the GI50 [13] was 3.64 and the GI50 [14] was 4.78. The GI50 [15] was 3.42, the GI50 [16] was 3.45 and the GI50 [47] was 4.41. For the same compound, the GI50 [48] was 4.39, the GI50 (cell line MDAMB134V) was 2.01 and the GI50 [49] was 3.11. For the same compound, the GI50 [18] was 3.95, the GI50 (cell line MDAMB231, value is the negative log10 of mol/L) was 3.75 and the GI50 [19] was 3.84. The GI50 (cell line MDAMB436) was 2.97, the GI50 [22] was 4.01 and the GI50 [23] was 3.71. The GI50 [24] was 4.48, the GI50 [25] was 4.40 and the GI50 [26] was 4.14. The GI50 (cell line SUM159PT, value is the negative log10 of mol/L) was 4.68, the GI50 (cell line SUM185PE) was 2.53 and the GI50 [28] was 3.37. It also gave a GI50 [30] of 4.02, a GI50 [50] of 3.30 and a GI50 [31] of 4.95. The GI50 [32] was 4.51.
